17 molecules from US12570648B2, “6,7-dihydro-5H-pyrido[2,3-c]pyridazine derivatives and related compounds as Bcl-xL protein inhibitors and pro-apoptotic agents for treating cancer” (LES LABORATOIRES SERVIER, priority 2019, dated 2026) can be followed below.

Assay [1] addresses GST(1-218)-(FACTOR_XA)-hsBCLXL(2-209) (Homo sapiens (Human), UniProt Q07817). Kind of assay: Fluorescence polarisation assay. Format: binding. The procedure:
Fluorescence polarization measures the rotation of a fluorescing species in solution, the larger the molecule the more polarized the fluorescence emission.
(GST UniProtKB® primary accession number P08515 and BCLXL UniProtKB® primary accession number Q07817-1), • resulting in an increase in anisotropy. If a compound is added which competitively binds to the same site as the probe, thereby releasing it, anisotropy decreases due to the increased amount of free probe.
An 11-point serial dilution of each compound was prepared in DMSO, the final buffer conditions were 10 mM 4-(2-hydroxyethyl)-1-piperazineethanesulfonic acid [HEPES], 150 mM NaCl, 0.05% Tween 20, pH 7.4 and 5% DMSO. The final protein concentration in the assay was 20 nM with the fluorescent probe present at 10 nM. […] 1; 37 (WebServer issue): W441-W445.
On the technique in general: Fluorescence polarisation rises when a labelled molecule tumbles more slowly, as on binding a larger partner.

A further assay has as its system MOLT-4 cells. Kind of assay: MOLT-4 cell viability using MTT assay. The note with it: Homo sapiens, MOLT-4, 48 h, 48 h exposure. Format: cell-based. The procedure: MTT colorimetric assay is based on the mitochondrial reduction of tetrazolium salt by living cells.
Cells were cultured at 37° C. in a humidified atmosphere containing 5% CO2. […] At the end of incubation time, 15 μL of MTT solution (5 mg/ml) were added per well and the cells were incubated for another 4 h. […] IC50s were calculated using standard four-parametric curve fitting.
(In general: Tetrazolium assays rely on reduction of a dye to a coloured formazan, in cell work by metabolically active cells.)

In the next assay the test system is H146 cells. The experiment in a line: H146 cell viability using MTT assay. Format: cell-based. To be noted: Homo sapiens, NCI-H146, 48 h exposure. An outline of the steps:
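IC50 comes from four-parameter fits of optical density at 540 nm. Readout used 4 h MTT reduction followed by overnight SDS/HCl solubilisation, after 48 h compound exposure across nine 3.16-fold dilutions in triplicate. Culture medium was RPMI 1640 with 10% heat-inactivated FBS, antibiotics and L-glutamine.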

Assay [2] concerns the target His-His-(EK)-hsBCLXL(2-197)[N197C] (Homo sapiens (Human), UniProt Q07817, N197C). The experiment in a line: Fluorescence quenching assay. Type of assay: binding. To be noted: 1 nM Cy5-labelled protein, 400 nM PUMA peptide, 2 hours at 23° C.; KI determined from IC50. An outline of the steps:
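Ki values converted from IC50s, measured as fluorescence increase (Ex 620/Em 680 nm) after 2 h at 23° C. Compounds were titrated over 11 points against 1 nM Cy5-BCL-xL and 400 nM quencher-tagged PUMA peptide in pH 7.4 HEPES (10 mM), 150 mM NaCl, 0.05% Tween 20, 5% DMSO.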

Chain of GST(1-218)-(FACTOR_XA)-hsBCLXL(2-209) (Q07817 other isoform, or with tags, fused parts or gaps): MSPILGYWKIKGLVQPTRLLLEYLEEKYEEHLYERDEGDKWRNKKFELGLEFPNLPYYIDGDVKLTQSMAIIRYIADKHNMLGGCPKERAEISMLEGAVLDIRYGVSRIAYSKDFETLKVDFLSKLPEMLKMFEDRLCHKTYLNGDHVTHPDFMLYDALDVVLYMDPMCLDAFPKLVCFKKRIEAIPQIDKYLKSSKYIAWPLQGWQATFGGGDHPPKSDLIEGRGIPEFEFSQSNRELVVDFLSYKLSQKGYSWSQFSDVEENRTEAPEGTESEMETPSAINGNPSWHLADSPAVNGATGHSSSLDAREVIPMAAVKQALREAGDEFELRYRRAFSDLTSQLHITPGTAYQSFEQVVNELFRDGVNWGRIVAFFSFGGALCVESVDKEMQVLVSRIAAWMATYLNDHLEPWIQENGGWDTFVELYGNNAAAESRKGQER
Chain of His-His-(EK)-hsBCLXL(2-197)[N197C] (Q07817 2-197 N197C): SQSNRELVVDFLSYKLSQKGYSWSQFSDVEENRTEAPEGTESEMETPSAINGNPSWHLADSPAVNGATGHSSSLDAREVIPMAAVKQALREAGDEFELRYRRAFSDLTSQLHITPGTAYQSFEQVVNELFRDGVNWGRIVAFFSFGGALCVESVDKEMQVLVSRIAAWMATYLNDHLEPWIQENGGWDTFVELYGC

For `Cc1c(Nc2nc3ccccc3s2)nnc2c1CCCN2c1cccc(C(=O)O)c1` [Example 26, 3-{3-[(1,3-Benzothiazol-2-yl)amino]-4-methyl-5H,6H,7H,8H-pyrido[2,3-c]pyridazin-8-yl}benzoic acid], the Ki (in general, the equilibrium dissociation constant of an inhibitor or competing ligand from its target) in assay [1] was found to be 15000 nM. Moreover, the IC50 (as a rule, the concentration at which inhibition is half-maximal) was not below 13400 nM in the assay with MOLT-4 cells and more than 15000 nM with H146 cells.
For `COCCCC1(Cn2ncc(-c3sc(N4CCc5c4nnc(Nc4nc6ccccc6s4)c5C)nc3C(=O)O)c2C)CCCCCCC1` [Example 14, 2-{3-[(1,3-Benzothiazol-2-yl)amino]-4-methyl-5H,6H,7H-pyrrolo[2,3-c]pyridazin-7-yl}-5-(1-{[1-(3-methoxypropyl)cyclooctyl]methyl}-5-methyl-1H-pyrazol-4-yl)-1,3-thiazole-4-carboxylic acid], in that order: 5.5 nM, 453 nM and 3080 nM.
Take `Cc1c(Nc2nc3ccccc3s2)nnc2c1CCCN2c1nc(C(=O)O)cs1` [Example 15, 2-{3-[(1,3-Benzothiazol-2-yl)amino]-4-methyl-5H,6H,7H,8H-pyrido[2,3-c]pyridazin-8-yl}-1,3-thiazole-4-carboxylic acid]: the Ki in assay [1] worked out at 2.3 nM. Besides, the IC50 with MOLT-4 cells was 1050 nM; in the assay on H146 cells, 2600 nM.
Regarding `Cc1c(Nc2nc3ccccc3s2)nnc2c1CCCN2c1nc(C(=O)O)c(CCCOc2ccc(C#CCN(C)C)cc2F)s1` [Example 27, 2-[3-(1,3-Benzothiazol-2-ylamino)-4-methyl-6,7-dihydro-5H-pyrido[2,3-c]pyridazin-8-yl]-5-[3-[4-[3-(dimethylamino)prop-1-ynyl]-2-fluoro-phenoxy]propyl]thiazole-4-carboxylic acid], the Ki in assay [1] is less than 1 nM; in assay [2], 8.5 pM. Inhibition in the assay with H146 cells was half-maximal at 6.53 nM (IC50).
Take `Cc1c(Nc2nc3ccccc3s2)nnc2c1CCCN2c1cccc(C(=O)O)n1` [Example 21, 6-{3-[(1,3-Benzothiazol-2-yl)amino]-4-methyl-5H,6H,7H,8H-pyrido[2,3-c]pyridazin-8-yl}pyridine-2-carboxylic acid]: the Ki in assay [1] came to 1600 nM. Moreover, the IC50 with MOLT-4 cells is 4230 nM; in the assay with H146 cells, more than 15000 nM.
In assay [1], `Cc1c(Nc2nc3ccccc3s2)nnc2c1CCN2c1cccc(C(=O)O)n1` [Example 20, 6-{3-[(1,3-Benzothiazol-2-yl)amino]-4-methyl-5H,6H,7H-pyrrolo[2,3-c]pyridazin-7-yl}pyridine-2-carboxylic acid] showed a Ki of 85 nM. Moreover, the IC50 with MOLT-4 cells is 162 nM; with H146 cells, 3100 nM.
Regarding `COCCCC1(Cn2ncc(-c3sc(N4CCc5c4nnc(Nc4nc6ccccc6s4)c5C)nc3C(=O)O)c2C)CCCCC1` [Example 17, 2-{3-[(1,3-Benzothiazol-2-yl)amino]-4-methyl-5H,6H,7H-pyrrolo[2,3-c]pyridazin-7-yl}-5-(1-{[1-(3-methoxypropyl)cyclohexyl]methyl}-5-methyl-1H-pyrazol-4-yl)-1,3-thiazole-4-carboxylic acid], in assay [1], the Ki amounted to 2 nM. For the same molecule, the IC50 was 128 nM in the assay on MOLT-4 cells and 393 nM with H146 cells.
On the same counts, the results for `Cc1c(Nc2nc3ccccc3s2)nnc2c1CCN2c1nc(C(=O)O)c(-c2cnn(CC34CC5CC(CC(C5)C3)C4)c2C)s1` [Example 13, 5-{1-[(Adamantan-1-yl)methyl]-5-methyl-1H-pyrazol-4-yl}-2-{3-[(1,3-benzothiazol-2-yl)amino]-4-methyl-5H,6H,7H-pyrrolo[2,3-c]pyridazin-7-yl}-1,3-thiazole-4-carboxylic acid] are 9.2 nM, 126 nM and 790 nM.
For `O=C(O)c1nc(-n2ccc3cc(Nc4nc5ccccc5s4)nnc32)sc1CCCOc1ccccc1F` [Example 9, 2-{3-[(1,3-Benzothiazol-2-yl)amino]-7H-pyrrolo[2,3-c]pyridazin-7-yl}-5-[3-(2-fluorophenoxy)propyl]-1,3-thiazole-4-carboxylic acid], in assay [1], the Ki was 13 nM. The molecule also returned an IC50 in the assay with H146 cells of 2340 nM.
As for `Cc1c(Nc2nc3ccccc3s2)nnc2c1C[C@@H](O)CN2c1nc(C(=O)O)cs1` [Example 33, 2-[(6R)-3-[(1,3-Benzothiazol-2-yl)amino]-6-hydroxy-4-methyl-5H,6H,7H,8H-pyrido[2,3-c]pyridazin-8-yl]-1,3-thiazole-4-carboxylic acid], the figures for the Ki in assay [1] and in assay [2] were 5.5 nM and 1400 pM, respectively.
`O=C(O)c1csc(N2CCc3c2nnc(Nc2nc4ccccc4s2)c3C2CC2)n1` [Example 28, 2-{3-[(1,3-Benzothiazol-2-yl)amino]-4-cyclopropyl-5H,6H,7H-pyrrolo[2,3-c]pyridazin-7-yl}-1,3-thiazole-4-carboxylic acid]: in assay [1], the Ki was determined as 14 nM. Besides, the values for the IC50 in the assay with MOLT-4 cells and in the assay on H146 cells were 880 nM and 3140 nM, respectively.
With `Cc1c(Nc2nccs2)nnc2c1CCN2c1nc(C(=O)O)cs1` [Example 18, 2-{4-Methyl-3-[(1,3-thiazol-2-yl)amino]-5H,6H,7H-pyrrolo[2,3-c]pyridazin-7-yl}-1,3-thiazole-4-carboxylic acid], in assay [1], the affinity corresponds to a Ki of 5000 nM.
Turning to `Cc1c(Nc2nc3ccccc3s2)nnc2c1CCCN2c1nc(C(=O)O)c(CCCOc2ccc(CCCN(C)C)cc2F)s1` [Example 36, 2-{3-[(1,3-Benzothiazol-2-yl)amino]-4-methyl-5H,6H,7H,8H-pyrido[2,3-c]pyridazin-8-yl}-5-(3-{4-[3-(dimethylamino)propyl]-2-fluorophenoxy}propyl)-1,3-thiazole-4-carboxylic acid], the Ki in assay [1] was less than 1 nM; in assay [2] it was 1.7 pM. Also, the IC50 in the assay with H146 cells stood at 5.51 nM.
For the molecule `Cc1c(Nc2nc3ccccc3s2)nnc2c1CCCCN2c1nc(C(=O)O)cs1` [Example 25, 2-{3-[(1,3-Benzothiazol-2-yl)amino]-4-methyl-5H,6H,7H,8H,9H-pyridazino[3,4-b]azepin-9-yl}-1,3-thiazole-4-carboxylic acid], the Ki in assay [1] is 120 nM.
`O=C(O)c1cccc(-n2ccc3cc(Nc4nc5ccccc5s4)ccc32)n1` [Example 5, 6-{5-[(1,3-Benzothiazol-2-yl)amino]-1H-indol-1-yl}pyridine-2-carboxylic acid] returned a Ki in assay [1] of more than 10000 nM.
In the case of `CNCC#Cc1ccc(OCCCc2sc(N3CCCc4c3nnc(Nc3nc5ccccc5s3)c4C)nc2C(=O)O)c(F)c1` [Example 32, 2-{3-[(1,3-Benzothiazol-2-yl)amino]-4-methyl-5H,6H,7H,8H-pyrido[2,3-c]pyridazin-8-yl}-5-(3-{2-fluoro-4-[3-(methylamino)prop-1-yn-1-yl]phenoxy}propyl)-1,3-thiazole-4-carboxylic acid], the values for the Ki in assay [1] and in assay [2] were less than 1 nM and 4.6 pM, respectively. In the assay with MOLT-4 cells, this molecule displayed an IC50 of 0.987 nM.
For the molecule `O=C(O)c1csc(N2CCc3cc(Nc4nc5ccccc5s4)nnc32)n1` [Example 10, 2-{3-[(1,3-Benzothiazol-2-yl)amino]-5H,6H,7H-pyrrolo[2,3-c]pyridazin-7-yl}-1,3-thiazole-4-carboxylic acid], the Ki in assay [1] turned out to be 210 nM. In addition, the IC50 in the assay with MOLT-4 cells and in the assay on H146 cells was more than 15000 nM throughout.
